Measured values taken from patent publication US6787318B1, “Assay for evaluating the therapeutic effectiveness of agents in reducing Alzheimer's disease pathology” (Roskamp Research Institute, LLC, priority 1999, dated 2004).
Entries after “also recorded” stand apart in the source; their conditions may differ.

Experiments:
CD40 [1] = assay: CD40 cell ELISA on cultured HAEC; format: cell-based, human; conditions: Aβ 50 nM to 10,000 nM; IFN-γ 5 to 500 U/mL; 48 hours
Description: To determine if CD40 expression on cultured HAEC was IFN-γ or Aβ dose-dependent, CD40 cell ELISA assays were performed according to published procedures. Briefly, cultured HAEC were plated at 2×10^4 cells/well in flat-bottom, 96-well tissue culture plates (Nunc-Immuno™ Plate, Denmark). […] Other HAEC were treated with a dose range (5 U/mL to 500 U/mL) of IFN-γ. […] Forty-eight hours post-treatment, plates were fixed overnight at 4° C. in 1% paraformaldehyde diluted in 1×PBS, washed three times with wash buffer (0.5% Tween 20 in 1×PBS), and subsequently incubated with […] of blocking buffer (10% fetal bovine serum in wash buffer) for one hour at 37° C. Cells were then treated with purified anti-human CD40 antibody ([…], PharMingen, Los Angeles, Calif.) in […] of blocking buffer for one hour at 37° C. Plates were washed four times with wash buffer. Biotinylated anti-mouse IgG1 (PharMingen, Los Angeles, Calif.; 1:2,000 dilution in blocking buffer, […]) was added and incubated for one hour at 37° C., followed by the addition of […] of a 1:3,000 dilution of HRP-Streptavidin (ZYMED, San Francisco, Calif.) for thirty minutes at 37° C. Plates were washed 4× with wash buffer and developed for twenty minutes at room temperature using the 3, 3′, 5, 5′-tetramethylbenzidine (TMB) one-step substrate system (DAKO, Carpinteria, Calif.) followed by the addition of 100 μL/well of 2N H2SO4 to stop the reaction. Absorbance was measured at 450 nm using a microplate spectrophotometer (SPECTRAmax 250, Molecular Devices, Sunnyvale, Calif.).

CD40 [2] = assay: CD40 expression in HAEC, cell-ELISA (CELISA); format: cell-based, human
Description: (§1) In vitro measurement of Aβ-induced changes in expression of the inflammatory cell-surface molecules CD40 and […] in cultured HAEC and HASM cells was performed using a slightly modified ABC-based cell-ELISA (CELISA). […] After PBS washes, 4% neutral formalin solution (Sigma) was used for fixation of the cells. Following quenching of the endogenous peroxidase activity with 3% H2O2 and routine blocking of non-specific binding, the biotinylated specific secondary antibodies against the primary antibodies (goat anti-mouse or anti-rabbit IgG) were applied. The combination of EXTRAVIDIN® Proxidase and the subsequent color reaction was performed strictly according to the manufacturer's instructions in the EXTRAVIDIN® Peroxidase Staining Kit (Sigma). The absorbance of 405 nm was then measured using a microplate reader (SPECTRAmax 250, Molecular Devices). The optical density (O.D.) value for the wells in the absence of the primary antibody for each group was considered as background and subtracted as the blank. In addition, stimulation with IFN-γ for CD40 was included as a positive control in the appropriate plate. Since CD45 is not expressed by endothelial or smooth muscle cells, the assays for expression of CD45 in these Aβ-treated cells were used as negative controls throughout the experiment. In addition, to evaluate the degree of cell death or proliferation in the Aβ-treated, cells, parallel experiments were performed using the MTS (3-(4,5-dimethylthiazol-2-yl)-5-(3-carboxymethoxyphenyl)-2-(4-sulfophenyl)-2H-tetrazolium) cell-proliferation kit (Promega).

TNF-α = conditions: high doses, literature (Meda et al.); cited from earlier work
CD40 [3] = assay: CD40 expression in Aβ-treated N9 and N60 microglial cells, flow cytometry; format: cell-based, murine
Source text: Mononuclear cells from AD patients secrete markedly higher levels of IFN-γ compared to age-matched controls (18).

IFN-γR = IFN-γR expression in HASM cells, cell-ELISA (CELISA); format: cell-based, human; conditions: Aβ-treated cells, 1 μg/ml mAb, four hours
Description: as §1
Activation of CD40 signalling can be achieved by stimulation with either CD40L or certain anti-CD40 mAbs. Since synthetic CD40L is not commercially available, one of the anti-CD40 mAbs (clone 3/23), which has been reported to activate CD40 signalling, was used to mimic the effect of interaction of CD40-CD40L. All Aβ-treated cells were incubated with 1 μg/ml anti-CD40 mAb […]) for four hours followed by CELISA.

Aβ1-42: amyloid β peptide 1-42, freshly solubilized
dose dependence of endothelial CD40 (CD40 [1]): marked increase in endothelial CD40 which is dose-dependent | CD40 expression in HAEC, dose dependence (CD40 [2]): dose-dependently increase CD40 expression | lowest effective concentration for CD40 expression (CD40 [2]; HAEC): 100 nM | dose able to produce increased TNF-α production in microglial cells (TNF-α): > 11 µM | CD40 expression on cultured microglial cells (CD40 [3]; 250 nM freshly solubilized peptide, N9 and N60 cells, vs control peptide or Aβ-free): significantly induce CD40 expression | dose dependence of microglial CD40 expression (CD40 [3]; from 50 to 1250 nM, N9 cells): induces microglial CD40 expression in a dose-dependent manner; also recorded: induced microglial CD40 expression in a dose dependent manner | IFN-γR expression in HASM cells on CD40 ligation by mAb (3/23) (IFN-γR): additive
